Results: patent publication US10100077B2, “6-aryl-9-glycosylpurines and use thereof” (UNIVERZITA PALACKEHO V OLOMOUCI, priority 2014, dated 2018)

Tested on: Arabidopsis wild-type plants (Col-0) detached leaves
Assay: Differential gene expression study (RNA sequencing) in senescent detached leaves
Settings: for logFC AT1G02790 Polygalacturonase 4 (PGA4) / logFC AT1G05580 Cation/H(+) exchanger 23 (CHX23) / logFC AT1G10585 Basic helix-loop-helix (bHLH) DNA-binding superfamily protein / logFC AT1G15540 2-oxoglutarate and Fe(II)-dependent oxygenase superfamily protein / logFC AT1G19670 Chlorophyllase-1 (CLH1) / logFC AT1G55560 SKU5 similar 14 (SKS14) / logFC AT1G59860 17.6 kDa class I heat shock protein 1 (HSP17.6A) / logFC AT1G59950 NAD(P)-linked oxidoreductase superfamily protein / logFC AT1G75830 Defensin-like protein 1.1 (PDF1.1) / logFC AT1G76640 Calcium-binding EF-hand family protein (CML39) / logFC AT2G02010 Glutamate decarboxylase 4 (GAD4) / logFC AT2G04460 Transposable element gene / logFC AT2G18150 Peroxidase 15 (PER15) / logFC AT2G21900 WRKY transcription factor 59 (WRKY59) / logFC AT2G26010 Defensin-like protein 1.3 (PDF1.3) / logFC AT2G26020 Defensin-like protein 1.2B (PDF1.2B) / logFC AT2G26695 Ran BP2/NZF zinc finger-like superfamily protein / logFC AT2G28210 Alpha carbonic anhydrase 2 (ATACA2) / logFC AT2G37430 Zinc finger protein ZAT11 / logFC AT2G39030 L-ornithine N5-acetyltransferase (NATA1) / logFC AT2G47040 Pectin methylesterase Vanguard1 (VGD1) / logFC AT2G47050 Plant invertase/pectin methylesterase inhibitor superfamily protein / logFC AT3G05610 Pectinesterase/pectinesterase inhibitor 21 (PME21) / logFC AT3G07820 Pectin lyase-like superfamily protein / logFC AT3G09340 Transmembrane amino acid transporter family protein / logFC AT3G11340 UDP-Glycosyltransferase superfamily protein / logFC AT3G13400 SKU5 similar 13 (SKS13) / logFC AT3G28153 Transposable element gene / logFC AT3G28155 ARM repeat superfamily protein / logFC AT3G44830 Putative phospholipid: diacylglycerol acyltransferase 2 (PDAT2) / logFC AT3G62710 Glycosyl hydrolase family protein / logFC AT4G01390 TRAF-like family protein / logFC AT4G21830 Peptide methionine sulfoxide reductase B7 (MSRB7) / logFC AT4G22030 F-box domain, cyclin-like, F-box domain, Skp2-like protein / logFC AT4G22620 SAUR-like auxin-responsive family protein / logFC AT4G24350 Phosphorylase superfamily protein / logFC AT4G26010 Peroxidase 44 (PER44) / logFC AT4G31950 Cytochrome P450 82C3 (CYP82C3) / logFC AT4G35010 Beta-galactosidase 11 (BGAL11) / logFC AT4G37780 Myb domain protein 87 (MYB87) / logFC AT4G39320 Microtubule-associated protein-related / logFC AT5G03610 GDSL esterase/lipase / logFC AT5G12960 Putative glycosyl hydrolase / logFC AT5G44420 Defensin-like protein 1.2A (PDF1.2A) / logFC AT5G44430 Defensin-like protein 1.2C (PDF1.2C) / logFC AT5G45880 Pollen Ole e 1 allergen and extensin family protein / logFC AT5G52670 Copper transport family protein / logFC AT5G61160 Agmatine coumaroyltransferase (ACT) / logFC AT5G62720 Integral membrane HPP family protein / logFC AT5G63270 RPM1-interacting protein 4 (RIN4) family protein / number of downregulated genes (P≤0.05) / number of upregulated genes (P≤0.05): 10 μM; for number of downregulated genes (P≤0.05) / number of upregulated genes (P≤0.05): vs mock
Method: Comparative gene expression analysis in Arabidopsis model was performed to gain information about the reprogramming of gene transcription when senescent leaves were treated with 6-(3-methoxybenzylamino)-9-β-D-arabinofuranosylpurine (3MeOBAPA).
For isolation of total RNA, Arabidopsis wild-type plants (Col-0) were used, which were either treated with 3MeOBAPA or left untreated. Wild-type plants were grown in soil for 30 days, and then leaves of similar size and chlorophyll content were cut and immediately used for the treatment. At least 20 detached leaves were submerged in 1×MS medium supplemented with 10 μM 3MeOBAPA. Control samples were mock treated with DMSO only. After incubation for 6 h or 48 h in the dark, detached leaves were frozen in liquid nitrogen and used for RNA isolation; 150 mg of liquid nitrogen-ground material was used per isolation. cDNA sequencing libraries were prepared with the Illumina TruSeq Stranded mRNA LT Sample Prep Kit (Illumina, San Diego, Calif.) according to standard Illumina's protocols and sequenced on HiSeq 2500 apparatus (50 bp single-end reads). […] To gain insight into the molecular mechanism of 3MeOBAPA action in Arabidopsis we decided to analyze the gene expression patterns via comparison of mock (DMSO)-treated plants with those obtained after i) short time treatment with 3MeOBAPA (6 h) and ii) long time treatment (48 h). This comparison leads to identification of group of genes with similar kinetic of expression and helps to understand possible mechanism of regulation. For data analysis, we performed ab initio method where sequencing reads were mapped to the reference genome.

- logFC AT4G31950 Cytochrome P450 82C3 (CYP82C3) (6 h): 0.37
- logFC AT4G31950 Cytochrome P450 82C3 (CYP82C3) (48 h): 5.29
SMILES: COc1cccc(CNc2ncnc3c2ncn3[C@@H]2O[C@H](CO)[C@@H](O)[C@@H]2O)c1 [6-(3-methoxybenzylamino)-9-β-D-arabinofuranosylpurine]
- logFC AT1G02790 Polygalacturonase 4 (PGA4) (6 h): 1.67
- logFC AT1G05580 Cation/H(+) exchanger 23 (CHX23) (6 h): 1.26
- logFC AT1G10585 Basic helix-loop-helix (bHLH) DNA-binding superfamily protein (6 h): 0.38
- logFC AT1G15540 2-oxoglutarate and Fe(II)-dependent oxygenase superfamily protein (6 h): 0.57
- logFC AT1G19670 Chlorophyllase-1 (CLH1) (6 h): 0.63
- logFC AT1G55560 SKU5 similar 14 (SKS14) (6 h): 1.71
- logFC AT1G59860 17.6 kDa class I heat shock protein 1 (HSP17.6A) (6 h): 0.48
- logFC AT1G59950 NAD(P)-linked oxidoreductase superfamily protein (6 h): 1.08
- logFC AT1G75830 Defensin-like protein 1.1 (PDF1.1) (6 h): 1.06
- logFC AT1G76640 Calcium-binding EF-hand family protein (CML39) (6 h): 0.78
- logFC AT2G02010 Glutamate decarboxylase 4 (GAD4) (6 h): 0.55
- logFC AT2G04460 Transposable element gene (6 h): 1.16
- logFC AT2G18150 Peroxidase 15 (PER15) (6 h): 0.68
- logFC AT2G21900 WRKY transcription factor 59 (WRKY59) (6 h): 0.54
- logFC AT2G26010 Defensin-like protein 1.3 (PDF1.3) (6 h): 1.47
- logFC AT2G26020 Defensin-like protein 1.2B (PDF1.2B) (6 h): 1.52
- logFC AT2G26695 Ran BP2/NZF zinc finger-like superfamily protein (6 h): 0.50
- logFC AT2G28210 Alpha carbonic anhydrase 2 (ATACA2) (6 h): 0.85
- logFC AT2G37430 Zinc finger protein ZAT11 (6 h): 0.42
- logFC AT2G39030 L-ornithine N5-acetyltransferase (NATA1) (6 h): 0.56
- logFC AT2G47040 Pectin methylesterase Vanguard1 (VGD1) (6 h): 2.80
- logFC AT2G47050 Plant invertase/pectin methylesterase inhibitor superfamily protein (6 h): 2.31
- logFC AT3G05610 Pectinesterase/pectinesterase inhibitor 21 (PME21) (6 h): 1.80
- logFC AT3G07820 Pectin lyase-like superfamily protein (6 h): 2.22
- logFC AT3G09340 Transmembrane amino acid transporter family protein (6 h): 0.55
- logFC AT3G11340 UDP-Glycosyltransferase superfamily protein (6 h): 0.51
- logFC AT3G13400 SKU5 similar 13 (SKS13) (6 h): 0.82
- logFC AT3G28153 Transposable element gene (6 h): 0.92
- logFC AT3G28155 ARM repeat superfamily protein (6 h): 0.59
- logFC AT3G44830 Putative phospholipid: diacylglycerol acyltransferase 2 (PDAT2) (6 h): 0.38
- logFC AT3G62710 Glycosyl hydrolase family protein (6 h): 1.35
- logFC AT4G01390 TRAF-like family protein (6 h): 0.79
- logFC AT4G21830 Peptide methionine sulfoxide reductase B7 (MSRB7) (6 h): 0.55
- logFC AT4G22030 F-box domain, cyclin-like, F-box domain, Skp2-like protein (6 h): 0.41
- logFC AT4G22620 SAUR-like auxin-responsive family protein (6 h): 0.46
- logFC AT4G24350 Phosphorylase superfamily protein (6 h): 0.64
- logFC AT4G26010 Peroxidase 44 (PER44) (6 h): 0.53
- logFC AT4G35010 Beta-galactosidase 11 (BGAL11) (6 h): 2.03
- logFC AT4G37780 Myb domain protein 87 (MYB87) (6 h): 0.41
- logFC AT4G39320 Microtubule-associated protein-related (6 h): 0.45
- logFC AT5G03610 GDSL esterase/lipase (6 h): 0.42
- logFC AT5G12960 Putative glycosyl hydrolase (6 h): 1.33
- logFC AT5G44420 Defensin-like protein 1.2A (PDF1.2A) (6 h): 1.58
- logFC AT5G44430 Defensin-like protein 1.2C (PDF1.2C) (6 h): 1.75
- logFC AT5G45880 Pollen Ole e 1 allergen and extensin family protein (6 h): 1.45
- logFC AT5G52670 Copper transport family protein (6 h): 0.57
- logFC AT5G61160 Agmatine coumaroyltransferase (ACT) (6 h): 1.13
- logFC AT5G62720 Integral membrane HPP family protein (6 h): 0.44
- logFC AT5G63270 RPM1-interacting protein 4 (RIN4) family protein (6 h): 0.56
- number of downregulated genes (P≤0.05) (6 h): 1119 genes
- number of upregulated genes (P≤0.05) (6 h): 1102 genes
- number of genes downregulated in both groups (6 h and 48 h overlap): 724 genes
- number of genes upregulated in both groups (6 h and 48 h overlap): 1102 genes
- logFC AT1G02790 Polygalacturonase 4 (PGA4) (48 h): 8.59
- logFC AT1G05580 Cation/H(+) exchanger 23 (CHX23) (48 h): 5.46
- logFC AT1G10585 Basic helix-loop-helix (bHLH) DNA-binding superfamily protein (48 h): 4.85
- logFC AT1G15540 2-oxoglutarate and Fe(II)-dependent oxygenase superfamily protein (48 h): 5.63
- logFC AT1G19670 Chlorophyllase-1 (CLH1) (48 h): 6.42
- logFC AT1G55560 SKU5 similar 14 (SKS14) (48 h): 8.75
- logFC AT1G59860 17.6 kDa class I heat shock protein 1 (HSP17.6A) (48 h): 5.47
- logFC AT1G59950 NAD(P)-linked oxidoreductase superfamily protein (48 h): 5.72
- logFC AT1G75830 Defensin-like protein 1.1 (PDF1.1) (48 h): 7.85
- logFC AT1G76640 Calcium-binding EF-hand family protein (CML39) (48 h): 7.06
- logFC AT2G02010 Glutamate decarboxylase 4 (GAD4) (48 h): 5.09
- logFC AT2G04460 Transposable element gene (48 h): 5.43
- logFC AT2G18150 Peroxidase 15 (PER15) (48 h): 7.22
- logFC AT2G21900 WRKY transcription factor 59 (WRKY59) (48 h): 5.81
- logFC AT2G26010 Defensin-like protein 1.3 (PDF1.3) (48 h): 8.23
- logFC AT2G26020 Defensin-like protein 1.2B (PDF1.2B) (48 h): 6.04
- logFC AT2G26695 Ran BP2/NZF zinc finger-like superfamily protein (48 h): 5.90
- logFC AT2G28210 Alpha carbonic anhydrase 2 (ATACA2) (48 h): 5.86
- logFC AT2G37430 Zinc finger protein ZAT11 (48 h): 4.96
- logFC AT2G39030 L-ornithine N5-acetyltransferase (NATA1) (48 h): 5.48
- logFC AT2G47040 Pectin methylesterase Vanguard1 (VGD1) (48 h): 5.89
- logFC AT2G47050 Plant invertase/pectin methylesterase inhibitor superfamily protein (48 h): 5.82
- logFC AT3G05610 Pectinesterase/pectinesterase inhibitor 21 (PME21) (48 h): 5.58
- logFC AT3G07820 Pectin lyase-like superfamily protein (48 h): 6.45
- logFC AT3G09340 Transmembrane amino acid transporter family protein (48 h): 8.54
- logFC AT3G11340 UDP-Glycosyltransferase superfamily protein (48 h): 6.60
- logFC AT3G13400 SKU5 similar 13 (SKS13) (48 h): 5.57
- logFC AT3G28153 Transposable element gene (48 h): 5.70
- logFC AT3G28155 ARM repeat superfamily protein (48 h): 6.06
- logFC AT3G44830 Putative phospholipid: diacylglycerol acyltransferase 2 (PDAT2) (48 h): 4.91
- logFC AT3G62710 Glycosyl hydrolase family protein (48 h): 5.26
- logFC AT4G01390 TRAF-like family protein (48 h): 6.24
- logFC AT4G21830 Peptide methionine sulfoxide reductase B7 (MSRB7) (48 h): 5.95
- logFC AT4G22030 F-box domain, cyclin-like, F-box domain, Skp2-like protein (48 h): 5.02
- logFC AT4G22620 SAUR-like auxin-responsive family protein (48 h): 5.05
- logFC AT4G24350 Phosphorylase superfamily protein (48 h): 6.45
- logFC AT4G26010 Peroxidase 44 (PER44) (48 h): 7.92
- logFC AT4G35010 Beta-galactosidase 11 (BGAL11) (48 h): 5.33
- logFC AT4G37780 Myb domain protein 87 (MYB87) (48 h): 6.88
- logFC AT4G39320 Microtubule-associated protein-related (48 h): 5.09
- logFC AT5G03610 GDSL esterase/lipase (48 h): 4.61
- logFC AT5G12960 Putative glycosyl hydrolase (48 h): 5.26
- logFC AT5G44420 Defensin-like protein 1.2A (PDF1.2A) (48 h): 8.15
- logFC AT5G44430 Defensin-like protein 1.2C (PDF1.2C) (48 h): 8.87
- logFC AT5G45880 Pollen Ole e 1 allergen and extensin family protein (48 h): 5.52
- logFC AT5G52670 Copper transport family protein (48 h): 6.03
- logFC AT5G61160 Agmatine coumaroyltransferase (ACT) (48 h): 5.05
- logFC AT5G62720 Integral membrane HPP family protein (48 h): 5.31
- logFC AT5G63270 RPM1-interacting protein 4 (RIN4) family protein (48 h): 7.11
- number of downregulated genes (P≤0.05) (48 h): 7095 genes
- number of upregulated genes (P≤0.05) (48 h): 7509 genes
